Source: PubChem BioAssay (NCI)
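Growth conditions: 96-well plates. Treatment: test compound, 48 hours, 5 concentrations. Analysis: linear interpolation between bracketing concentrations; unreached endpoints set to highest concentration. The concentration for 50% growth inhibition is given as GI50. At the TGI there is no net growth.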

How the values were obtained:
Assay in all cases: NCI-60 cell line screen, 48 h
HCT-116 colon = system: HCT-116 colon
CAKI-1 renal = system: CAKI-1 renal
CCRF-CEM leukemia = system: CCRF-CEM leukemia
SNB-19 CNS = system: SNB-19 CNS
BT-549 breast = system: BT-549 breast
OVCAR-3 ovarian = system: OVCAR-3 ovarian
MDA-MB-231 breast = system: MDA-MB-231 breast
HT29 colon = system: HT29 colon
COLO 205 colon = system: COLO 205 colon
SNB-75 CNS = system: SNB-75 CNS
UACC-257 melanoma = system: UACC-257 melanoma
T-47D breast = system: T-47D breast
OVCAR-8 ovarian = system: OVCAR-8 ovarian
ACHN renal = system: ACHN renal
MOLT-4 leukemia = system: MOLT-4 leukemia
LOX IMVI melanoma = system: LOX IMVI melanoma
NCI-H23 lung = system: NCI-H23 lung
HS 578T breast = system: HS 578T breast
MDA-MB-435 = system: MDA-MB-435
SF-539 CNS = system: SF-539 CNS
NCI-H460 lung = system: NCI-H460 lung
SN12C renal = system: SN12C renal
NCI-H226 lung = system: NCI-H226 lung
SK-MEL-5 melanoma = system: SK-MEL-5 melanoma
HCC-2998 colon = system: HCC-2998 colon
K-562 leukemia = system: K-562 leukemia
SW-620 colon = system: SW-620 colon
SF-295 CNS = system: SF-295 CNS
MCF7 breast = system: MCF7 breast
OVCAR-4 ovarian = system: OVCAR-4 ovarian
SK-MEL-28 melanoma = system: SK-MEL-28 melanoma
A498 renal = system: A498 renal
MALME-3M melanoma = system: MALME-3M melanoma
HOP-62 NSCLC = system: HOP-62 NSCLC
NCI-H522 lung = system: NCI-H522 lung
UACC-62 melanoma = system: UACC-62 melanoma
DU-145 prostate = system: DU-145 prostate
NCI/ADR-RES ovarian = system: NCI/ADR-RES ovarian
U251 CNS = system: U251 CNS
M14 melanoma = system: M14 melanoma
IGROV1 ovarian = system: IGROV1 ovarian
HCT-15 colon = system: HCT-15 colon
786-0 renal = system: 786-0 renal
SR leukemia = system: SR leukemia
SF-268 CNS = system: SF-268 CNS
UO-31 renal = system: UO-31 renal
TK-10 renal = system: TK-10 renal
SK-OV-3 ovarian = system: SK-OV-3 ovarian
A549 NSCLC = system: A549 NSCLC
PC-3 prostate = system: PC-3 prostate
KM12 colon = system: KM12 colon
SK-MEL-2 melanoma = system: SK-MEL-2 melanoma
HL-60(TB) leukemia = system: HL-60(TB) leukemia
HOP-92 NSCLC = system: HOP-92 NSCLC
OVCAR-5 ovarian = system: OVCAR-5 ovarian
EKVX NSCLC = system: EKVX NSCLC

Which results are given for `COc1ccccc1N1CCN(CC(O)COc2c(Br)c(Br)c(Br)c3c2OC(C)(C)C3)CC1` (configuration not stated)?
GI50 (HCT-116 colon): 4.45 µM; TGI (HCT-116 colon): 20.1 µM; GI50 (CAKI-1 renal): 4.56 µM; TGI (CAKI-1 renal): 12.3 µM; GI50 (CCRF-CEM leukemia): 92.2 µM; TGI (CCRF-CEM leukemia): > 100 µM; GI50 (SNB-19 CNS): 17.9 µM; TGI (SNB-19 CNS): 47.3 µM; GI50 (BT-549 breast): 12.5 µM; TGI (BT-549 breast): 34.1 µM; GI50 (OVCAR-3 ovarian): 14.4 µM; TGI (OVCAR-3 ovarian): 34.6 µM; GI50 (MDA-MB-231 breast): 12.9 µM; TGI (MDA-MB-231 breast): 32.1 µM; GI50 (HT29 colon): 4.1 µM; TGI (HT29 colon): 14 µM; GI50 (COLO 205 colon): 12.4 µM; TGI (COLO 205 colon): 30.4 µM; GI50 (SNB-75 CNS): 18.1 µM; TGI (SNB-75 CNS): 94.1 µM; GI50 (UACC-257 melanoma): 23.4 µM; TGI (UACC-257 melanoma): > 100 µM; GI50 (T-47D breast): 15.8 µM; TGI (T-47D breast): > 100 µM; GI50 (OVCAR-8 ovarian): 31.5 µM; TGI (OVCAR-8 ovarian): 94.4 µM; GI50 (ACHN renal): 14.2 µM; TGI (ACHN renal): > 100 µM; GI50 (MOLT-4 leukemia): 4.25 µM; TGI (MOLT-4 leukemia): > 100 µM; GI50 (LOX IMVI melanoma): 6.38 µM; TGI (LOX IMVI melanoma): 18.9 µM; GI50 (NCI-H23 lung): 9.53 µM; TGI (NCI-H23 lung): 38.4 µM; GI50 (HS 578T breast): 15 µM; TGI (HS 578T breast): 42 µM; GI50 (MDA-MB-435): 16.2 µM; TGI (MDA-MB-435): 55.1 µM; GI50 (SF-539 CNS): 13.9 µM; TGI (SF-539 CNS): 32.1 µM; GI50 (NCI-H460 lung): 8.78 µM; TGI (NCI-H460 lung): 54.4 µM; GI50 (SN12C renal): 14.6 µM; TGI (SN12C renal): 32.9 µM; GI50 (NCI-H226 lung): 13.2 µM; TGI (NCI-H226 lung): 64.5 µM; GI50 (SK-MEL-5 melanoma): 4.91 µM; TGI (SK-MEL-5 melanoma): 19.1 µM; GI50 (HCC-2998 colon): 4.57 µM; TGI (HCC-2998 colon): 16.5 µM; GI50 (K-562 leukemia): 4.7 µM; TGI (K-562 leukemia): > 100 µM; GI50 (SW-620 colon): 9.6 µM; TGI (SW-620 colon): 25.7 µM; GI50 (SF-295 CNS): 4.68 µM; TGI (SF-295 CNS): 17.3 µM; GI50 (MCF7 breast): 25.5 µM; TGI (MCF7 breast): > 100 µM; GI50 (OVCAR-4 ovarian): 8.93 µM; TGI (OVCAR-4 ovarian): > 100 µM; GI50 (SK-MEL-28 melanoma): 17.3 µM; TGI (SK-MEL-28 melanoma): 36.8 µM; GI50 (A498 renal): 20.4 µM; TGI (A498 renal): 47.9 µM; GI50 (MALME-3M melanoma): 16.1 µM; TGI (MALME-3M melanoma): 37.5 µM; GI50 (HOP-62 NSCLC): 12.6 µM; TGI (HOP-62 NSCLC): 30.8 µM; GI50 (NCI-H522 lung): 12.3 µM; TGI (NCI-H522 lung): 27.9 µM; GI50 (UACC-62 melanoma): 12 µM; TGI (UACC-62 melanoma): 30.6 µM; GI50 (DU-145 prostate): 16.5 µM; TGI (DU-145 prostate): 37.3 µM; GI50 (NCI/ADR-RES ovarian): 11.2 µM; TGI (NCI/ADR-RES ovarian): > 100 µM; GI50 (U251 CNS): 10.6 µM; TGI (U251 CNS): 24.2 µM; GI50 (M14 melanoma): 13.2 µM; TGI (M14 melanoma): 37.5 µM; GI50 (IGROV1 ovarian): 12.8 µM; TGI (IGROV1 ovarian): 38.9 µM; GI50 (HCT-15 colon): 4.72 µM; TGI (HCT-15 colon): 24.8 µM; GI50 (786-0 renal): 12.8 µM; TGI (786-0 renal): 29.6 µM; GI50 (SR leukemia): 7.83 µM; TGI (SR leukemia): > 100 µM; GI50 (SF-268 CNS): 33.3 µM; TGI (SF-268 CNS): > 100 µM; GI50 (UO-31 renal): 9.66 µM; TGI (UO-31 renal): 27.2 µM; GI50 (TK-10 renal): 15.4 µM; TGI (TK-10 renal): 46.7 µM; GI50 (SK-OV-3 ovarian): 49.4 µM; TGI (SK-OV-3 ovarian): > 100 µM; GI50 (A549 NSCLC): 16.6 µM; TGI (A549 NSCLC): 96.5 µM; GI50 (PC-3 prostate): 6.53 µM; TGI (PC-3 prostate): 43.4 µM; GI50 (KM12 colon): 13.7 µM; TGI (KM12 colon): 56.1 µM; GI50 (SK-MEL-2 melanoma): 5.32 µM; TGI (SK-MEL-2 melanoma): 20.9 µM; GI50 (HL-60(TB) leukemia): 5.05 µM; TGI (HL-60(TB) leukemia): > 100 µM; GI50 (HOP-92 NSCLC): 6.15 µM; TGI (HOP-92 NSCLC): 24.1 µM; GI50 (OVCAR-5 ovarian): 19.4 µM; TGI (OVCAR-5 ovarian): > 100 µM; GI50 (EKVX NSCLC): 8.85 µM; TGI (EKVX NSCLC): > 100 µM
